According to US20170081338A1, “SUBSTITUTED HETEROARYL COMPOUNDS AND METHODS OF USE” (Sunshine Lake Pharma Co., Ltd., priority 2015, published 2017):

Legend:
JAK1 (h) = target: T1, JAK1 (h) (Homo sapiens, UniProt P23458); test: JAK1 (h) kinase assay; format: biochemical
T1 construct: purchased Millipore UK Ltd (contract assay service)
Protocol: (§1) Kinase assays can be performed by measurement of incorporation of γ-^33P ATP into immobilized myelin basic protein (MBP). High binding white 384 well plates (Greiner) are coated with MBP (Sigma #M-1891) by incubation of 60 μL/well of 20 μg/mL MBP in Tris-buffered saline (TBS; 50 mM Tris pH 8.0, 138 mM NaCl, 2.7 mM KCl) for 24 h at 4° C. Plates are washed 3× with 100 μL TBS. Kinase reactions are carried out in a total volume of 34 μL in kinase buffer (according to the need to make, for example, 5 mM Hepes pH 7.6, 15 mM NaCl, 0.01% bovine gamma globulin (Sigma #1-5506), 10 mM MgCl2, 1 mM DTT, 0.02% TritonX-100). Compound dilutions are performed in DMSO and added to assay wells to a final DMSO concentration of 1%. Each data point is measured in duplicate, and at least two duplicate assays are performed for each individual compound determination. Enzyme is added to final concentrations of 10 nM or 20 nM, for example. A mixture of unlabeled ATP and γ-^33P ATP is added to start the reaction (2×10^6 cpm of γ-^33P ATP per well (3000 Ci/mmole) and 10 μM unlabeled ATP, typically. The reactions are carried out for 1 h at room temperature with shaking. Plates are washed 7× with TBS, followed by the addition of 50 µL/well scintillation fluid (Wallac). Plates are read using a Wallac Trilux counter. This is only one format of such assays; various other formats are possible, as known to one skilled in the art.
(§2) The above assay procedure can be used to determine the IC50 for inhibition and/or the inhibition constant, Ki. The IC50 is defined as the concentration of compound required to reduce the enzyme activity by 50% under the condition of the assay. The IC50 value is estimated by preparing a 10 point curve using a 1/2 log dilution series (for example, a typical curve may be prepared using the following compound concentrations: 3 μM, 1 μM, 0.3 μM, 0.1 μM, 0.03 μM, 0.01 μM, 0.003 μM, 0.001 μM, 0.0003 μM and 0 μM).
JAK1 (h) is incubated with 20 mM Tris/HCl pH 7.5, 0.2 mM EDTA, 500 μM GEEPLYWSFPAKKK, 10 mM MgAcetate and [γ-^33P-ATP] (specific activity approx. 500 cpm/pmol, concentration as required). The reaction is initiated by the addition of the MgATP mix. After incubation for 40 minutes at room temperature, the reaction is stopped by the addition of 3% phosphoric acid solution. 10 μL of the reaction is then spotted onto a P30 filtermat and washed three times for 5 minutes in 75 mM phosphoric acid and once in methanol prior to drying and scintillation counting.
(§3) The kinase assays described herein were performed at Millipore UK Ltd, Dundee Technology Park, Dundee DD2 1SW, UK.

[1] = Compound stability in rat liver microsomes; format: in vitro ADME; details: pH 7.4; for half-life at 5 μM: rat liver microsomes 0.5 mg protein/mL, compound 5 μM, NADPH, 37° C., read-out: Rat T1/2; for CLint scaled at 5 μM: rat liver microsomes, in vivo CLint extrapolated
Outline: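 Microsomes 0.5 mg protein/mL; cpd 5 μM; NADPH 1.0 mM; 100 mM phosphate pH 7.4; DMSO 0.05%; 37° C; duplicates. Timepoints 0–60 min, acetonitrile stop, LC/MS/MS. Data as % of zero-time; CLint extrapolated.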

Aurora-B (h) = target: T2, Aurora-B (h) (Homo sapiens, UniProt Q96GD4); test: Aurora-B (h) kinase assay; format: biochemical
T2 construct: purchased Millipore UK Ltd (contract assay service)
T2 sequence (Q96GD4 whole entry): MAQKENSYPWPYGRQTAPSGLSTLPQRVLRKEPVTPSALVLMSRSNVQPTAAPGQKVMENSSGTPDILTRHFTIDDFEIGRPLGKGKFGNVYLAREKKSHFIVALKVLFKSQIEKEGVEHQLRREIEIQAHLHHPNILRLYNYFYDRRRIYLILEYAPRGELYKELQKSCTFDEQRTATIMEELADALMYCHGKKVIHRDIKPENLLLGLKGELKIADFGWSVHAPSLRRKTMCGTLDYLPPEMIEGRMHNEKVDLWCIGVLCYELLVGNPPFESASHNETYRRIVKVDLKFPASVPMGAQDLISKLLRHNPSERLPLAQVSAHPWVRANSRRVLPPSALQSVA
Protocol: as §1, §2
Aurora-B (h) is incubated with 8 mM MOPS pH 7.0, 0.2 mM EDTA, 30 μM AKRRRLSSLRA, 10 mM MgAcetate and [γ-^33PATP] (specific activity approx. 500 cpm/pmol, concentration as required). The reaction is initiated by the addition of the MgATP mix. After incubation for 40 minutes at room temperature, the reaction is stopped by the addition of a 3% phosphoric acid solution. 10 μL of the reaction is then spotted onto a P30 filtermat and washed three times for 5 minutes in 75 mM phosphoric acid and once in methanol prior to drying and scintillation counting.
as §3

T1 sequence (P23458 whole entry): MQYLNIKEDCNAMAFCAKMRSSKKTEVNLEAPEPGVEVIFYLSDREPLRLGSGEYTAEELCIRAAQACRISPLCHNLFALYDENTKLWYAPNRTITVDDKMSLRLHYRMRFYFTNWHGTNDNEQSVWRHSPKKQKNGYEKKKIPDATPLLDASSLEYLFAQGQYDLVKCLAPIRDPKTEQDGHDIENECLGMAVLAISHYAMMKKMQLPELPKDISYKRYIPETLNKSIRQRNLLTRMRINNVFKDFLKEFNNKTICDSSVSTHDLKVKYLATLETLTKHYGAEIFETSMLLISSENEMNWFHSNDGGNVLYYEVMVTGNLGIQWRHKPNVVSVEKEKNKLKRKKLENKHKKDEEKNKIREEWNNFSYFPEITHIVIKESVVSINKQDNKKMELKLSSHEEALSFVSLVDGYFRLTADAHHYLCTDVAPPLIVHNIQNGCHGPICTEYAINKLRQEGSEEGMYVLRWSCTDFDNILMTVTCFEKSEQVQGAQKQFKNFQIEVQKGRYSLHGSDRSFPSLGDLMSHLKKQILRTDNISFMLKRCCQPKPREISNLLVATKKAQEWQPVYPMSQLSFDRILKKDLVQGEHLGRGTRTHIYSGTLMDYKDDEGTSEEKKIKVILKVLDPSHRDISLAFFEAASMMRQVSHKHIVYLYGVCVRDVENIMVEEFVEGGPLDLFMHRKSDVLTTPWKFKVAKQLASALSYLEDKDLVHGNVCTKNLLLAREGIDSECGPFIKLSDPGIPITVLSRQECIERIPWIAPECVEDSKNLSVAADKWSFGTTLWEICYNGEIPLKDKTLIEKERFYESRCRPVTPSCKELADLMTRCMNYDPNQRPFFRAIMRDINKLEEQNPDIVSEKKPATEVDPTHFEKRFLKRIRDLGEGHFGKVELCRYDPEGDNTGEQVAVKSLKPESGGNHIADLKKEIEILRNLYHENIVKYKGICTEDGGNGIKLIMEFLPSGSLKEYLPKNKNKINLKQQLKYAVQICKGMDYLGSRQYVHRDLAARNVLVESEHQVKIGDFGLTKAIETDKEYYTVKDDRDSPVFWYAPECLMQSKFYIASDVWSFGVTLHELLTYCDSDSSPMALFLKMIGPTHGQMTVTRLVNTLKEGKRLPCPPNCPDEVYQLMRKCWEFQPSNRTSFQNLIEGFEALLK

Row | SMILES | IC50 (JAK1 (h)) [nM] | half-life at 5 μM [1] [h] | CLint scaled at 5 μM [1] [mL/min/kg] | IC50 (Aurora-B (h)) [nM]
1 | CC(C)CS(=O)(=O)N[C@H]1COC2C1OC[C@H]2Nc1nc(Nc2cnn(C)c2)ncc1Cl (stereo partly drawn) [Ex. 2, N-((3S,6R)-6-((5-chloro-2-((1-methyl-1H-pyrazol-4-yl)amino)pyrimidin-4-yl)amino)hexahydrofuro[3,2-b]furan-3-yl)-2-methylpropane-1-sulfonamide] | 43 | 1.12 | 36.9 | 29
2 | Cn1cc(Nc2ncc(Cl)c(N[C@@H]3COC4C3OC[C@@H]4NS(=O)(=O)CC(C)(C)C#N)n2)cn1 (stereo partly drawn) [Ex. 26, N-((3S,6R)-6-((5-chloro-2-((1-methyl-1H-pyrazol-4-yl)amino)pyrimidin-4-yl)amino)hexahydrofuro[3,2-b]furan-3-yl)-2-cyano-2-methylpropane-1-sulfonamide] | 94 | 0.682 | 60.7 | 11
3 | Cn1cc(Nc2ncc(Cl)c(N[C@@H]3COC4C3OC[C@@H]4NS(=O)(=O)CC(F)(F)F)n2)cn1 (stereo partly drawn) [Ex. 27, N-((3S,6R)-6-((5-chloro-2-((1-methyl-1H-pyrazol-4-yl)amino)pyrimidin-4-yl)amino)hexahydrofuro[3,2-b]furan-3-yl)-2,2,2-trifluoroethanesulfonamide] | 7 | 0.942 | 44 | 8
4 | Cn1cc(Nc2ncc(Cl)c(N[C@@H]3COC4C3OC[C@@H]4NS(=O)(=O)CC3CC3)n2)cn1 (stereo partly drawn) [Ex. 25, N-((3S,6R)-6-((5-chloro-2-((1-methyl-1H-pyrazol-4-yl)amino)pyrimidin-4-yl)amino)hexahydrofuro[3,2-b]furan-3-yl)-1-cyclopropylmethanesulfonamide] | 27 | 1.16 | 35.6 | 24
